Laboratory results as given in patent US20220233565A1, “REDUCED NICOTINAMIDERIBOSIDES FOR TREATING/PREVENTING SKELETAL MUSCLE DISEASE” (SOCIETE DES PRODUITS NESTLE S.A., priority 2019, published 2022).
Entries after “also recorded” stand apart in the source; their conditions may differ. Structures can show the parent of a compound that is named as a salt.

Tests used:
[1] = biological target: T1, adenosine kinase (AK) (Mus musculus, UniProt P55264); assay: NRH-induced NAD+ synthesis under adenosine kinase inhibition; format: cell-based; design: effect of AK inhibitor on the action of NRH (NAD+ synthesis): dose or concentration left out as unconfirmed; conditions: for effect of AK inhibitor on the action of NRH (NAD+ synthesis): AML12 cells, inhibitor 1 hour prior to NRH (5-IT), NAD+ 1 hour later
T1 construct: endogenous in cells; host or cells: AML12 cells
T1 sequence (P55264 whole entry): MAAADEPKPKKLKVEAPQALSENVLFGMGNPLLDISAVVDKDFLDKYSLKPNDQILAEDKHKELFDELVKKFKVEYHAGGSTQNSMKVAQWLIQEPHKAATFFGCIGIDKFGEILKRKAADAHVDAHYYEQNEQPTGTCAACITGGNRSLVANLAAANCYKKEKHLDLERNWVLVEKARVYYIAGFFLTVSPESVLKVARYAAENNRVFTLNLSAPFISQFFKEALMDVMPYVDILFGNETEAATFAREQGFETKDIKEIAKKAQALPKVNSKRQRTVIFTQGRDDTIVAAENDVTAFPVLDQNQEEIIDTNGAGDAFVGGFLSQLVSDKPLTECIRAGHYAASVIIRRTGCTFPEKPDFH
Method: FIG. 4. […] AML12 cells were treated with an adenosine kinase inhibitor (5-IT; […]) for 1 hour prior to NRH treatment at the doses indicated. Then, 1 hour later, acidic extracts were obtained to measure NAD^+ levels. All values in the figure are expressed as mean+/−SEM of 3 independent experiments. * indicates statistical difference at p<0.05 vs. the respective vehicle treated group.

[2] = tested on: NAD+ synthesis; assay: Intracellular NAD+ related metabolites after treatment (UHPLC-MS); format: cell-based; conditions: for intracellular detection of NRH and NMNH: 5 minutes after treatment
From the text: (§1) Levels of NRH and other NAD-related metabolites in biological samples were obtained by using a cold liquid-liquid extraction using a mixture of methanol:water:chloroform in 5:3:5 (v/v), from which the polar phase was recovered for hydrophilic interaction ultra-high performance liquid chromatography mass spectrometry (UHPLC-MS) analysis. The UHPLC consisted of a binary pump, a cooled autosampler, and a column oven (DIONEX Ultimate 3000 UHPLC+ Focused, Thermo Scientific), connected to a triple quadrupole spectrometer (TSQ Vantage, Thermo Scientific) equipped with a heated electrospray ionisation (H-ESI) source. Of each sample, 2 μL were injected into the analytical column (2.1 mm×150 mm, 5 μm pore size, 200 Å HILICON iHILIC®-Fusion(P)), guarded by a pre-column (2.1 mm×20 mm, 200 Å HILICON iHILIC®-Fusion(P) Guard Kit) operating at 35° C. The mobile phase (10 mM ammonium acetate at pH 9, A, and acetonitrile, B) was pumped at 0.25 mL/min flow rate over a linear gradient of decreasing organic solvent (0.5-16 min, 90-25% B), followed by re-equilibration for a total run time of 30 min. The MS operated in positive mode at 3500 V with multiple reaction monitoring (MRM). The software Xcalibur v4.1.31.9 (Thermo Scientific) was used for instrument control, data acquisition and processing. Retention time and mass detection was confirmed by authentic standards.
A path in which NRH would be converted to NMNH, then to NADH and this would be finally oxidized to NAD+.

[3] = tested on: NRK1; assay: NAD+ levels in primary hepatocytes from control or NRK1 knockout mice; format: cell-based; conditions: 1 hour of treatment
From the text: (§2) The action of NRH was also NAMPT-independent, based on experiments using FK866, a NAMPT inhibitor. If NRH led to NAD+ synthesis via the formation of NMNH, this hypothetical path would require the phosphorylation of NRH into NMNH. Given the essential and rate-limiting role of NRK1 in NR phosphorylation, we wondered whether the ability of NRH to boost NAD+ levels was NRK1 dependent. To answer this question, we evaluated NRH action in primary hepatocytes from either control or NRK1 knockout (NRK1KO) mice. […] Further, they rule out the possibility that NRH-induced NAD+ […] is driven by NRH oxidation into NR.

[4] = Stability in isolated mouse plasma; format: in vitro ADME; conditions: for generation of NAM in plasma / level of spiked compound in plasma: isolated mouse plasma, 2 h of incubation
From the text: as §1
(§3) NR degradation to NAM has been proposed as a limitation for its pharmacological efficacy. To evaluate whether NRH was also susceptible to degradation to NAM, we spiked NRH or NR in isolated mouse plasma. […] We also tested the stability of NRH in other matrixes. […] Finally, we also certified NRH stability in water (pH=7, at room temperature) for 48 h.

[5] = Intraperitoneal injection in mice: tissue NAD+ and circulating metabolites; format: in vivo; conditions: for NAM levels in circulation / NAD+ levels in kidney / NAD+ levels in liver / NAD+ levels in muscle: IP 500 mg/kg; for NAD+ levels in kidney / NAD+ levels in liver / NAD+ levels in muscle: after 1 h
From the text: as §1
The above results prompted us to test whether NRH could act as an effective NAD+ precursor in vivo. For this, we first intraperitoneally (IP) injected mice with either NR or NRH (500 mg/kg). […] Importantly, NRH was detectable in circulation after IP injection.

[6] = Oral gavage in mice: hepatic NAD+ and plasma metabolites; format: in vivo; conditions: for administered compound in plasma: 1 h after oral administration
Method: 8 week-old C57BI/6NTac mice were orally gavaged with either saline (as vehicle), NR (500 mg/kg) or NRH (500 mg/kg). After 1 hour, liver, skeletal muscle and kidney NAD levels were evaluated. All results are expressed as mean+/−SEM of n=5 mice per group. * indicates statistical difference at p<0.05 vs. vs. saline-treated mice. # indicates statistical difference at p<0.05 vs. NR treated mice.
as §1
Oral administration of NRH led to very similar results to those observed after IP administration. […] NRH was detectable in plasma 1 h after oral administration. In contrast, NR levels were undetectable at 1 h after NR administration.

[7] = tested on: NMNAT; assay: NRH-induced NAD+ synthesis under NMNAT inhibition (gallotannin); format: cell-based
From the text: As a follow-up step, NMNAT enzymes could catalyze the transition from NMNH to NADH. […] Yet, part of the NRH action remained after gallotannin treatment when NRH was used at maximal doses.

[8] = tested on: AML12 hepatocytes; assay: Intracellular NAD+ levels in AML12 hepatocytes (dose-response and time course); format: cell-based
Method: Starting at levels at a concentration of 10 μM, NRH achieved similar increases in intracellular NAD+ levels to those reached with NR at 50-fold higher concentrations. NRH achieved maximal effects on NAD+ synthesis around the millimolar range, managing to increase intracellular NAD+ levels by more than 10-fold.
NRH actions were also extremely fast, as significant increases in NAD+ levels were observed within 5 minutes after NRH treatment.
Even at such relatively low dose, NRH achieved similar increases in intracellular NAD+ levels to those reached with NR at 50-fold higher concentrations. NRH achieved maximal effects on NAD+ synthesis around the millimolar range, managing to increase intracellular NAD+ levels by more than 10-fold.
NRH actions were also extremely fast (FIG. 3), as significant increases in NAD+ levels were observed within 5 minutes after NRH treatment.

[9] = tested on: C2C12 myotubes; assay: NAD+ levels in C2C12 myotubes after NRH treatment; format: cell-based
Method: (§4) The ability of NRH to potently increase NAD+ was tested as well in other cell type models.

[10] = tested on: INS1-cells; assay: NAD+ levels in INS1-cells after NRH treatment; format: cell-based
Method: as §4

[11] = tested on: 3T3 fibroblasts; assay: NAD+ levels in 3T3 fibroblasts after NRH treatment; format: cell-based
Method: as §4

[12] = tested on: equilibrative nucleoside transporters (ENTs); assay: NRH as extracellular NAD+ precursor under blockage of ENT-mediated transport (NBTI); format: cell-based; conditions: in the presence of NBTI
From the text: In order to understand the exact path by which NRH synthesizes NAD+, we initially evaluated whether NRH, could be transported into the cell by equilibrative nucleoside transporters (ENTs).

[13] = biological target: T2, NAMPT (Mus musculus, UniProt Q99KQ4); assay: NRH action in presence of NAMPT inhibitor FK866; format: cell-based; conditions: with FK866, a NAMPT inhibitor
T2 construct: endogenous in cells
T2 sequence (Q99KQ4 whole entry): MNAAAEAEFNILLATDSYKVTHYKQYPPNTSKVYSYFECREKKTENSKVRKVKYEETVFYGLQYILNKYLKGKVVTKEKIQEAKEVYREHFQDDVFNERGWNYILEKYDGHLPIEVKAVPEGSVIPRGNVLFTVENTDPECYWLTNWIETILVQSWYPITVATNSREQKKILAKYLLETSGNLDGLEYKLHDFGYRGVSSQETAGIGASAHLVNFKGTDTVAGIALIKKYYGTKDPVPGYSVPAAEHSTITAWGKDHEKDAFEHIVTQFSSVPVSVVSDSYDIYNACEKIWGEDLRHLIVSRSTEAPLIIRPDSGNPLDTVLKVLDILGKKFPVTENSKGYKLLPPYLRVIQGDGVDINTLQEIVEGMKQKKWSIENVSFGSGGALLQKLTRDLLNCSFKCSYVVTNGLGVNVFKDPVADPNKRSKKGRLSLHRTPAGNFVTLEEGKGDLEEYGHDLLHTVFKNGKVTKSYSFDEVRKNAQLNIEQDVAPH
From the text: as §2

[14] = Stability in FBS supplemented media; format: in vitro ADME
Method: as §3

[15] = Stability in water; format: physicochemical; conditions: pH=7, room temperature
Method: as §3

[16] = Oral gavage in mice: NRH levels in tissues; format: in vivo; conditions: 2 hours after gavage (250 mg/kg)
Method: 8 week-old C57BI/6NTac mice were orally gavaged with either saline (as vehicle), and NRH (250 mg/kg). After 2 hours, liver, skeletal muscle and kidney NRH levels were evaluated. All results are expressed as mean+/−SEM of n=4 mice per group, as areas under the signal by LC-MS analysis, corrected by total protein amount of tissue.
as §1

Structure (SMILES): Nc1ncnc2nc(-c3ccc(N4CCOCC4)nc3)cc(-c3cccc(Br)c3)c12 [ABT-702]
- effect of AK inhibitor on the action of NRH (NAD+ synthesis) [1]: confirmed

Structure (SMILES): NC(=O)c1ccc[n+]([C@@H]2O[C@H](CO)[C@@H](O)[C@H]2O)c1 [NR, 1-b-D-ribofuranosyl-3-pyridinecarboxamide salt, reference compound]
- intracellular detection of NRH and NMNH [2]: not
- NAD+ levels in NRK1KO derived primary hepatocytes [3]: failed to increase NAD+ levels
- generation of NAM in plasma [4]: increase in NAM
- level of spiked compound in plasma [4]: decayed
- NAM levels in circulation [5]: highly increased
- NAD+ levels in kidney [5]: increased
- NAD+ levels in liver [5]: increased
- NAD+ levels in muscle [5]: increased
- administered compound in plasma [6]: undetectable
- circulating NAM ([6]; oral administration): large increases

Structure (SMILES): O=C(OC[C@H]1O[C@@H](OC(=O)c2cc(O)c(O)c(OC(=O)c3cc(O)c(O)c(O)c3)c2)[C@H](OC(=O)c2cc(O)c(O)c(OC(=O)c3cc(O)c(O)c(O)c3)c2)[C@@H](OC(=O)c2cc(O)c(O)c(OC(=O)c3cc(O)c(O)c(O)c3)c2)[C@@H]1OC(=O)c1cc(O)c(O)c(OC(=O)c2cc(O)c(O)c(O)c2)c1)c1cc(O)c(O)c(OC(=O)c2cc(O)c(O)c(O)c2)c1 [gallotannin]
- effect of NMNAT inhibitor on NAD+ synthesis after NRH treatment ([7]; NRH at maximal doses (0.5 mM)): largely compromised
- effect of NMNAT inhibitor on NRH action ([7]; NRH at submaximal doses): totally blocked

Structure (SMILES): Nc1ncnc2c1c(I)cn2[C@@H]1O[C@H](CO)[C@@H](O)[C@H]1O [5-IT, 5-iodotubercidin]
- effect of AK inhibitor on the action of NRH (NAD+ synthesis) [1]: fully ablated
- formation of NR and NMN after NRH treatment ([1]; with AK inhibitor): prevented

Structure (SMILES): NC(=O)C1=CN([C@@H]2O[C@H](CO)[C@@H](O)[C@H]2O)C=CC1 [NRH, reduced nicotinamide riboside]
- ability to increase intracellular NAD+ compared with NR ([8]; AML12 hepatocytes): better than NR; also recorded: superior to that of NR
- time to significant increase in NAD+ levels after treatment ([8]; AML12 hepatocytes (FIG. 3)): ≤ 5 min
- increase of intracellular NAD+ levels (maximal effect) ([8]; AML12 hepatocytes, around the millimolar range): more than 10 fold
- concentration at which NAD+ levels were significantly increased ([8]; AML12 hepatocytes, dose-response (FIG. 2)): 10 µM
- fold higher NR concentration needed for similar increase in intracellular NAD+ ([8]; NRH at 10 μM versus NR): 50 fold
- NAD+ levels [9]: highly elevated
- NAD+ levels [10]: highly elevated
- NAD+ levels [11]: highly elevated
- intracellular detection of NRH and NMNH [2]: could be detected
- intracellular NR and NMN ([2]; after treatment, compared with NR): greater than that triggered by NR itself
- capacity as extracellular NAD+ precursor under ENT blockage [12]: largely lost its capacity
- dependence of action on NAMPT [13]: NAMPT-independent
- NAD+ levels in NRK1KO derived primary hepatocytes [3]: not affected by NRK1 deficiency
- generation of NMNH, NADH and NAD+ from NRH upon inhibition of AK ([1]; metabolomic analyses): fully blunted
- NR production in plasma ([4]; incubation in isolated plasma): did not lead to NR production
- generation of NAM in plasma [4]: not generated; also recorded: did not significantly alter NAM levels
- level of spiked compound in plasma [4]: remained stable
- degradation to NAM in FBS supplemented media [14]: did not degrade to NAM
- time for which stability in water was certified [15]: 48 h
- NAM levels in circulation [5]: only a very mild increase
- NAD+ levels in kidney [5]: increased
- NAD+ levels in liver [5]: increased
- NAD+ levels in muscle [5]: increased
- NRH in circulation ([5]; after IP injection): detectable
- NR in circulation ([5]; after IP injection, compared with NR injection): much higher levels than those detected after NR injection itself
- administered compound in plasma [6]: detectable
- NRH concentration in plasma ([6]; after oral gavage): 11.16 ± 1.74 µM
- effect on hepatic NAD+ levels compared with NR ([6]; oral administration): more potent effect
- NRH in kidney [16]: found intact, in high levels
- NRH in liver [16]: found intact, in high levels
- NRH in muscle [16]: found intact, in high levels
